“And” between values parts separate entries of the source, which are not always exact repeats. Equal values may be shown once. Read-outs that look alike come from different tables or passages of the source.
Columns and labels:
[1] = system: motricité spontanée de la souris; assay: Spontaneous motor activity; assay type: in vivo
Text: (§1) On a donc étudié les effets dépresseurs que peuvent exercer des doses croissantes de SCS 289 sur : • - la motricité spontanée de la souris; • - sa curiosité, quantifiée par la méthode de la planche à trous; • - son agilité, évaluée par l'épreuve de la traction de Boissier et Simon; • - sa force musculaire, mesurée par l'épreuve des poids.
(§2) Les essais ont été pratiqués sur des groupes de 10 souris dont les performances motrices ont été mesurées à deux reprises : avant et une heure après traitement par le SCS 289 administré, par voie digestive à des doses allant de 10 à 200 mg/kg, actives vis-à-vis des convulsions pentétrazoliques et des crises psychomotrices. A noter que l'épreuve de la planche à trous utilisée pour chiffrer la curiosité des animaux (décompte du nombre de visites des trous) n'est pratiquée qu'une seule fois, le comportement explorateur des animaux traités étant alors comparé à celui des témoins.
(§3) Les résultats obtenus dans chaque groupe ont permis de calculer la DA50 capable de diminuer de 50 X les performances motrices initiales ou de diminuer de 50% la curiosité des souris traitées par rapport à celle des témoins.
(§4) Les expérimentations comportementales précédemment décrites ont été appliquées à des animaux recevant SCS 35 et SCS 289 aux doses de 10 et 25 mg/kg.

[2] = Spontaneous motor activity; assay type: in vivo, souris; conditions: mouse, in vivo, po; dose diminishing initial performance by 50 %; read-out: DA50 motricité
Text: as §1, §2, §3, §4

Narcotic effect = conditions: mouse, in vivo; souris; read-out: DE50 narcotique
Experimental: En ce qui concerne la maniabilité, la comparaison des doses de SCS 289 exerçant, chez la souris, des effets létaux et anticonvulsivants permet de prévoir une marge thérapeutique assez confortable (dans le domaine du "petit mal") : • - DL50 = 2300 + 102 mg/kg; • - DE50 narcotique, comprise entre 1 et 2 g/kg; • - DE50 anticonvulsivante vis-à-vis du ^pentétrazol; • - DE50 anticonvulsivante vis-à-vis des crises psychomotrices.

agilité de la souris = assay: Traction test of Boissier and Simon (agility); assay type: in vivo
Text: as §1, §2, §3, §4

[3] = Traction test of Boissier and Simon (agility); assay type: in vivo, souris; conditions: mouse, in vivo, po; dose diminishing initial performance by 50 %; read-out: DA50 agilité
Text: as §1, §2, §3, §4

[4] = system: crises épileptiformes consécutives à l'électrochoc; assay: Maximal electroshock producing epileptiform 'grand mal' seizures (1st and 2nd electroshock); assay type: in vivo, lapin
Text: Propriétés anticonvulsivantes : • On a effectué, pour déterminer ces propriétés anticonvulsivantes, des expérimentations sur le SCS 289 en procédant à des essais de protection : • - chez le lapin soumis à une transélectrification cranienne génératrice de crises épileptiformes de type "grand mal" ou recevant une infusion veineuse de pentétrazol provoquant l'apparition de myoclonies palpébrales; • - chez la souris recevant, par voie sous-cutanée des doses croissantes de pentétrazol entraînant convulsions et mort ou soumise à une transélectrification transcranienne à basse fréquence génératrice de crises psychomotrices.
Ne considérant comme significative, que la protection complète, les traitements pratiqués une heure avant le second électrochoc ont conféré les protection suivantes (sur groupes de dix lapins) :
Si, par ailleurs, on considère la protection contre les crises toniques (hyperextension des pattes postérieures), il apparaît également une synergie particulièrement aux doses associées de 200 mg/kg de produits.

[5] = Hole-board test (curiosity, exploratory behaviour); assay type: in vivo, souris; conditions: mouse, in vivo, po
Text: as §1, §2, §3, §4

curiosité de la souris = assay: Hole-board test (curiosity, exploratory behaviour); assay type: in vivo
Text: as §1, §2, §3, §4

souris = assay: Acute toxicity by the digestive route, lethality after one week of observation; assay type: in vivo; conditions: souris, voie digestive, méthode de Miller et Tainter; 10080 min
Experimental: (§5) Des doses croissantes de produit (SCS 289) ont été administrées, par voie digestive, sous forme de suspensions gommeuses, sous le volume de 0,50 ml/20 g de poids corporel chez la souris et 0,50 ml/100 g de poids corporel chez le rat (de 500 à 4000 mg/kg avec des intervalles de 500 mg/kg).
(§6) Les animaux ont été maintenus en observation pendant une semaine, tout d'abord dans le laboratoire (avec un chauffage d'appoint) jusqu'au réveil des animaux endormis, puis dans l'unité animale conditionnée et climatisée.
(§7) Le taux de mortalité relevé dans chaque lot de rats et de souris au terme de la semaine d'observation a été le suivant :
(§8) Les valeurs des DL50, calculées par la méthode de Miller et Tainter sont respectivement de : • - 2300 ± 102 m^g/k^g chez la souris; • - 2050 + 220 mg/kg chez le rat.

[6] = as above; assay type: in vivo, souris; conditions: mouse, in vivo, po; for mortality at 168 h: read-out: Pourcentage de létalité Souris
Experimental: as §5, §6, §7, §8

[7] = 10 mg/kg voie digestive, one hour after treatment

Q: With `CC(C)OC(=O)N(C(N)=O)c1ccccc1` [SCS 289, phényl-2 allophanate d'isopropyle] as the molecule, how does the “Propriétés déficitaires motrices sur la motricité (pourcentage de diminution des scores)” value [1, 7] read?
A: The value was 0%.

Q: And the “Propriétés déficitaires motrices sur la motricité (pourcentage de diminution des scores)” value ([1]; 25 mg/kg)?
A: Its value is 20%.

Q: And the “Propriétés déficitaires motrices sur la motricité (pourcentage de diminution des scores)” value ([1]; 50 mg/kg)?
A: The value was 25%.

Q: And the “Propriétés déficitaires motrices sur la motricité (pourcentage de diminution des scores)” value ([1]; 75 mg/kg)?
A: The value was 30%.

Q: And the “Propriétés déficitaires motrices sur la motricité (pourcentage de diminution des scores)” value ([1]; 100 mg/kg)?
A: Its value is 50%.

Q: What about the “Propriétés déficitaires motrices sur la motricité (pourcentage de diminution des scores)” value ([1]; 150 mg/kg) of the same molecule?
A: The value was 100%.

Q: What about the “Propriétés déficitaires motrices sur la motricité (pourcentage de diminution des scores)” value ([1]; 200 mg/kg) of the same molecule?
A: The value was 100%.

Q: And the ED50 at 1 h [2]?
A: The ED50 at 1 h was 120 mg/kg.

Q: And the ED50 (Narcotic effect)?
A: The ED50 was 1000 to 2000 mg/kg.

Q: And the “Propriétés déficitaires motrices sur l'agilité (pourcentage de diminution des scores)” value (agilité de la souris; [7])?
A: The value was 6,7%.

Q: And the “Propriétés déficitaires motrices sur l'agilité (pourcentage de diminution des scores)” value (agilité de la souris; 25 mg/kg)?
A: The value was 20%.

Q: And the “Propriétés déficitaires motrices sur l'agilité (pourcentage de diminution des scores)” value (agilité de la souris; 50 mg/kg)?
A: The value was 41,7%.

Q: And the “Propriétés déficitaires motrices sur l'agilité (pourcentage de diminution des scores)” value (agilité de la souris; 75 mg/kg)?
A: Its value is 77,3%.

Q: And the “Propriétés déficitaires motrices sur l'agilité (pourcentage de diminution des scores)” value (agilité de la souris; 100 mg/kg)?
A: Its value is 90%.

Q: And the “Propriétés déficitaires motrices sur l'agilité (pourcentage de diminution des scores)” value (agilité de la souris; 150 mg/kg)?
A: Its value is 100%.

Q: And the “Propriétés déficitaires motrices sur l'agilité (pourcentage de diminution des scores)” value (agilité de la souris; 200 mg/kg)?
A: Its value is 100%.

Q: What about the ED50 at 1 h [3] of the same molecule?
A: Its ED50 at 1 h is 42 mg/kg.

Q: And the “% d'animaux protégés contre les seules crises toniques” value ([4]; 100 mg/kg, hyperextension tonique des pattes postérieures)?
A: Its value is 60%.

Q: And the “% d'animaux protégés contre les seules crises toniques” value ([4]; 200 mg/kg)?
A: Its value is 50%.

Q: And the “protection contre la forme tonique des convulsions (animals out of ten)” value ([4]; 200 mg/kg)?
A: Its value is “cinq animaux sur dix”.

Q: What about the “% d'animaux protégés complètement” value ([4]; 200 mg/kg, one hour before second electroshock, groups of ten rabbits) of the same molecule?
A: Its value is 20%.

Q: What about the ED50 at 1 h ([5]; méthode de Miller et Tainter, read-out: DA50 capable de diminuer de 50 % la curiosité de la souris) of the same molecule?
A: The ED50 at 1 h was 82.5 mg/kg.

Q: What about the selectivity ratio ([5]; souris, read-out: DA50 curiosité par rapport aux doses anticonvulsivantes (pentétrazol / crises psychomotrices)) of the same molecule?
A: The selectivity ratio was 15 to 18.

Q: And the “Nb de visites des trous Traités” value (curiosité de la souris; 10 mg/kg, par souris pendant cinq minutes, témoins 26,5)?
A: The value was 27.

Q: What about the “Nb de visites des trous Traités” value (curiosité de la souris; 25 mg/kg, témoins 26,4) of the same molecule?
A: The value was 27,4.

Q: What about the “Nb de visites des trous Traités” value (curiosité de la souris; 50 mg/kg, témoins 24,2) of the same molecule?
A: The value was 23,6.

Q: And the “Nb de visites des trous Traités” value (curiosité de la souris; 75 mg/kg, témoins 27)?
A: The value was 21,4.

Q: And the “Nb de visites des trous Traités” value (curiosité de la souris; 100 mg/kg, témoins 25,4)?
A: The value was 8,6.

Q: What about the “Nb de visites des trous Traités” value (curiosité de la souris; 150 mg/kg, témoins 24,2) of the same molecule?
A: The value was 0.

Q: And the “Nb de visites des trous Traités” value (curiosité de la souris; 200 mg/kg, témoins 24,2)?
A: Its value is 0.

Q: And the “DA50 capable de diminuer de 50 % la curiosité de la souris” value (curiosité de la souris; méthode de Miller et Tainter, 60 min)?
A: Its value is 82,5 ± 7,6 mg/kg and ~82 mg/kg.

Q: What about the DL50 (souris) of the same molecule?
A: The DL50 was 2300 + 102 mg/kg.

Q: And the mortality at 168 h ([6]; 500 mg/kg voie digestive)?
A: The mortality at 168 h was 0%.

Q: And the mortality at 168 h ([6]; 1000 mg/kg voie digestive)?
A: Its mortality at 168 h is 0%.

Q: What about the mortality at 168 h ([6]; 1500 mg/kg voie digestive) of the same molecule?
A: Its mortality at 168 h is 0%.

Q: And the mortality at 168 h ([6]; 2000 mg/kg voie digestive)?
A: The mortality at 168 h was 20%.

Q: What about the mortality at 168 h ([6]; 2500 mg/kg voie digestive) of the same molecule?
A: The mortality at 168 h was 40%.

Q: And the mortality at 168 h ([6]; 3000 mg/kg voie digestive)?
A: The mortality at 168 h was 100%.

Q: What about the mortality at 168 h ([6]; 3500 mg/kg voie digestive) of the same molecule?
A: Its mortality at 168 h is 100%.

Q: And the mortality at 168 h ([6]; 4000 mg/kg voie digestive)?
A: Its mortality at 168 h is 100%.

Q: What about the LD50 at 168 h ([6]; souris, voie digestive, méthode de Miller et Tainter, read-out: DL50) of the same molecule?
A: The LD50 at 168 h was 2300 ± 102 mg/kg.
